From ChEMBL document CHEMBL3885861, “Open TG-GATES”

Species on record: Rattus norvegicus
Assay: Open TG-GATES - Regimen: Single
Type: toxicity, organism-based, Sprague-Dawley
Parameters: regimen Single, gender Male, age 6 weeks
Conditions: in vivo, po, 150 mg/kg, route gavage, dose level High; for APTT / Bas / Eos / Fbg / Hb / Ht / Lym / MCH / MCHC / MCV / Mono / Neu / PT / Plat / RBC / Ret / WBC: tissue Blood; for KIDNEY_L / KIDNEY_R / KIDNEY_TOTAL: tissue Kidney; for LIVER: tissue Liver; for A/G / ALP / ALT / AST / BUN / CRE / Ca / Cl / DBIL / GLC / IP / K / LDH / Na / PL / RALB / TBIL / TC / TG / TP / gamma-GTP: tissue Plasma

CC1=C(CC(=O)O)c2cc(F)ccc2/C1=C\c1ccc([S+](C)[O-])cc1 (configuration not stated)
TERMINAL_BW (3 h): 202.5 g | APTT (3 h): 18.7 s | Bas (3 h): 0% | Eos (3 h): 0.8% | Fbg (3 h): 270.6 mg/dL | Hb (3 h): 12.9 g/dL | Ht (3 h): 38.9% | Lym (3 h): 76.4% | MCH (3 h): 21 pg | MCHC (3 h): 33.2% | MCV (3 h): 63.4 fL | Mono (3 h): 3% | Neu (3 h): 18.8% | PT (3 h): 14.3 s | Plat (3 h): 126.3 x10_4/uL | RBC (3 h): 615.4 x10_4/ul | Ret (3 h): 7.8% | WBC (3 h): 82 x10_2/uL | KIDNEY_L (3 h): 0.9 g | KIDNEY_R (3 h): 0.9 g | KIDNEY_TOTAL (3 h): 1.8 g | LIVER (3 h): 8.9 g | A/G (3 h): 1 | ALP (3 h): 1334 IU/L | ALT (3 h): 39.2 IU/L | AST (3 h): 71.2 IU/L | BUN (3 h): 10.4 mg/dL | CRE (3 h): 0.2 mg/dL | Ca (3 h): 10.7 mg/dL | Cl (3 h): 103.8 meq/L | DBIL (3 h): 0.006 mg/dL | GLC (3 h): 161.2 mg/dL | IP (3 h): 8.1 mg/dL | K (3 h): 4 meq/L | LDH (3 h): 67.8 IU/L | Na (3 h): 139.8 meq/L | PL (3 h): 144.4 mg/dL | RALB (3 h): 2.5 g/dL | TBIL (3 h): 0.044 mg/dL | TC (3 h): 75.6 mg/dL | TG (3 h): 71.4 mg/dL | TP (3 h): 5.2 g/dL | gamma-GTP (3 h): 1 IU/L | TERMINAL_BW (6 h): 201.1 g | APTT (6 h): 17.9 s | Bas (6 h): 0% | Eos (6 h): 0.4% | Fbg (6 h): 280 mg/dL | Hb (6 h): 13.3 g/dL | Ht (6 h): 40.9% | Lym (6 h): 65.8% | MCH (6 h): 21 pg | MCHC (6 h): 32.7% | MCV (6 h): 64.4 fL | Mono (6 h): 3.6% | Neu (6 h): 29.2% | PT (6 h): 14 s | Plat (6 h): 133.5 x10_4/uL | RBC (6 h): 635 x10_4/ul | Ret (6 h): 8.1% | WBC (6 h): 68.2 x10_2/uL | KIDNEY_L (6 h): 0.9 g | KIDNEY_R (6 h): 1 g | KIDNEY_TOTAL (6 h): 1.9 g | LIVER (6 h): 8.2 g | A/G (6 h): 1 | ALP (6 h): 1506 IU/L | ALT (6 h): 40 IU/L | AST (6 h): 71.4 IU/L | BUN (6 h): 10.4 mg/dL | CRE (6 h): 0.2 mg/dL | Ca (6 h): 10.7 mg/dL | Cl (6 h): 104.8 meq/L | DBIL (6 h): 0.01 mg/dL | GLC (6 h): 168.4 mg/dL | IP (6 h): 9.3 mg/dL | K (6 h): 4.1 meq/L | LDH (6 h): 77.6 IU/L | Na (6 h): 141.2 meq/L | PL (6 h): 135.4 mg/dL | RALB (6 h): 2.6 g/dL | TBIL (6 h): 0.04 mg/dL | TC (6 h): 70.6 mg/dL | TG (6 h): 33 mg/dL | TP (6 h): 5.3 g/dL | gamma-GTP (6 h): 1.4 IU/L | TERMINAL_BW (9 h): 200.1 g | APTT (9 h): 16.2 s | Bas (9 h): 0% | Eos (9 h): 1% | Fbg (9 h): 294.8 mg/dL | Hb (9 h): 13.3 g/dL | Ht (9 h): 40.5% | Lym (9 h): 67.4% | MCH (9 h): 20.8 pg | MCHC (9 h): 32.8% | MCV (9 h): 63.5 fL | Mono (9 h): 3.2% | Neu (9 h): 28% | PT (9 h): 13.8 s | Plat (9 h): 122 x10_4/uL | RBC (9 h): 638 x10_4/ul | Ret (9 h): 7.8% | WBC (9 h): 50.2 x10_2/uL | KIDNEY_L (9 h): 0.9 g | KIDNEY_R (9 h): 0.9 g | KIDNEY_TOTAL (9 h): 1.8 g | LIVER (9 h): 7.6 g | A/G (9 h): 1 | ALP (9 h): 1365 IU/L | ALT (9 h): 37.4 IU/L | AST (9 h): 68.8 IU/L | BUN (9 h): 9.8 mg/dL | CRE (9 h): 0.2 mg/dL | Ca (9 h): 10.4 mg/dL | Cl (9 h): 107 meq/L | DBIL (9 h): 0.014 mg/dL | GLC (9 h): 169.4 mg/dL | IP (9 h): 10.1 mg/dL | K (9 h): 4.2 meq/L | LDH (9 h): 72 IU/L | Na (9 h): 141.4 meq/L | PL (9 h): 127.8 mg/dL | RALB (9 h): 2.6 g/dL | TBIL (9 h): 0.046 mg/dL | TC (9 h): 68.4 mg/dL | TG (9 h): 40 mg/dL | TP (9 h): 5.2 g/dL | gamma-GTP (9 h): 1 IU/L | TERMINAL_BW (24 h): 203.3 g | APTT (24 h): 15.4 s | Bas (24 h): 0% | Eos (24 h): 0.4% | Fbg (24 h): 378 mg/dL | Hb (24 h): 10.3 g/dL | Ht (24 h): 32% | Lym (24 h): 54.4% | MCH (24 h): 20.7 pg | MCHC (24 h): 32.3% | MCV (24 h): 64 fL | Mono (24 h): 2.4% | Neu (24 h): 42% | PT (24 h): 13 s | Plat (24 h): 78.4 x10_4/uL | RBC (24 h): 500.2 x10_4/ul | Ret (24 h): 8.5% | WBC (24 h): 96.3 x10_2/uL | KIDNEY_L (24 h): 0.9 g | KIDNEY_R (24 h): 0.9 g | KIDNEY_TOTAL (24 h): 1.8 g | LIVER (24 h): 9.1 g | A/G (24 h): 0.9 | ALP (24 h): 747.4 IU/L | ALT (24 h): 30.2 IU/L | AST (24 h): 42.6 IU/L | BUN (24 h): 24 mg/dL | CRE (24 h): 0.2 mg/dL | Ca (24 h): 9.3 mg/dL | Cl (24 h): 105.2 meq/L | DBIL (24 h): 0.008 mg/dL | GLC (24 h): 162.4 mg/dL | IP (24 h): 9.8 mg/dL | K (24 h): 5.1 meq/L | LDH (24 h): 58.8 IU/L | Na (24 h): 137.2 meq/L | PL (24 h): 117 mg/dL | RALB (24 h): 1.5 g/dL | TBIL (24 h): 0.024 mg/dL | TC (24 h): 67.4 mg/dL | TG (24 h): 126.6 mg/dL | TP (24 h): 3.2 g/dL | gamma-GTP (24 h): 0.8 IU/L
